Measured values from ChEMBL document CHEMBL3813659 (Bioorg Med Chem, 2016).
pEC50, pKi: −log10 of the molar value.

What was measured:
Oxytocin receptor [1] = molecular target: T1, Oxytocin receptor (Homo sapiens, UniProt P30559); assay: Displacement of [3H]8-arginine-vasopressin from human oxytocin receptor expressed in CHO cell membrane incubated for 1 hr by liquid scintillation counting method; type: cell membranes
T1 sequence (P30559 whole entry): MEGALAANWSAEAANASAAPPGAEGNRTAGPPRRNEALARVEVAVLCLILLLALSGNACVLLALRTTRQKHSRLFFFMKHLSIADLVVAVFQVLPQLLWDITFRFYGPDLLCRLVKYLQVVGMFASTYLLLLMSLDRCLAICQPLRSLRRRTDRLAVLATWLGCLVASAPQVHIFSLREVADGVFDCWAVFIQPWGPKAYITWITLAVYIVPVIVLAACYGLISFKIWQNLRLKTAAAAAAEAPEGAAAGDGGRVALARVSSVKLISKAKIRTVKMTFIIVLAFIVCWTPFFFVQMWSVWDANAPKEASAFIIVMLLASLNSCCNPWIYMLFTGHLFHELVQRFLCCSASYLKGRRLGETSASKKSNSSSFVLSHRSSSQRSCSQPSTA

[2] = molecular target: T2, Oxytocin receptor (Homo sapiens) (UniProt P30559); assay: Intrinsic agonist activity at human oxytocin receptor expressed in CHO cells assessed as increase in intracellular calcium flux measured for 90 sec by fluo-4 dye based FLIPR assay relative to control; type: functional, cell-based
T2 sequence (whole entry): T1 sequence (P30559 whole entry)

Oxytocin receptor [3] = molecular target: T1, Oxytocin receptor; assay: Agonist activity at human oxytocin receptor expressed in CHO cells assessed as increase in intracellular calcium flux measured for 90 sec by fluo-4 dye based FLIPR assay; type: functional, cell-based

Compound | pKi (Oxytocin receptor [1]) | Intrinsic activity [2] | pEC50 (Oxytocin receptor [3])
CC[C@H](C)[C@@H]1NC(=O)[C@H](Cc2ccc(O)cc2)NC(=O)[C@@H](N)CSSC[C@@H](C(=O)N2CCC[C@H]2C(=O)N[C@@H](CC(C)C)C(=O)N(C)CC(N)=O)NC(=O)[C@H](CC(N)=O)NC(=O)[C@H](CCC(N)=O)NC1=O | 8.88 | 102% | 9.33
CC[C@H](C)[C@@H]1NC(=O)[C@H](Cc2ccc(O)cc2)NC(=O)[C@@H](N)CSSC[C@@H](C(=O)N2CCC[C@H]2C(=O)N[C@@H](CC(C)C)C(=O)NCC(N)=O)NC(=O)[C@H](CC(N)=O)NC(=O)[C@H](CCC(N)=O)N(C)C1=O | < 6.00 | – | < 6.00
CC[C@H](C)[C@@H]1NC(=O)[C@H](Cc2ccc(O)cc2)N(C)C(=O)[C@@H](N)CSSC[C@@H](C(=O)N2CCC[C@H]2C(=O)N[C@@H](CC(C)C)C(=O)NCC(N)=O)N(C)C(=O)[C@H](CC(N)=O)NC(=O)[C@H](CCC(N)=O)NC1=O | – | 78% | 8.16
CC[C@H](C)[C@@H]1NC(=O)[C@H](Cc2ccc(O)cc2)NC(=O)CCSSC[C@@H](C(=O)N2CCC[C@H]2C(=O)N(C)[C@@H](CC(C)C)C(=O)NCC(N)=O)N(C)C(=O)[C@H](CC(N)=O)NC(=O)[C@H](CCC(N)=O)NC1=O | – | 86% | 8.37
CC[C@H](C)[C@@H]1NC(=O)[C@H](Cc2ccc(O)cc2)NC(=O)[C@@H](NC)CSSC[C@@H](C(=O)N2CCC[C@H]2C(=O)N[C@@H](CC(C)C)C(=O)NCC(N)=O)N(C)C(=O)[C@H](CC(N)=O)NC(=O)[C@H](CCC(N)=O)NC1=O | 7.01 | 81% | 6.76
CC[C@H](C)[C@@H]1NC(=O)[C@H](Cc2ccc(O)cc2)NC(=O)[C@@H](N)CSSC[C@@H](C(=O)N2CCC[C@H]2C(=O)N(C)[C@@H](CC(C)C)C(=O)NCC(N)=O)NC(=O)[C@H](CC(N)=O)NC(=O)[C@H](CCC(N)=O)NC1=O | 9.01 | 97% | 9.28
CC[C@H](C)[C@@H]1NC(=O)[C@H](Cc2ccc(O)cc2)N(C)C(=O)CCSSC[C@@H](C(=O)N2CCC[C@H]2C(=O)N[C@@H](CC(C)C)C(=O)NCC(N)=O)N(C)C(=O)[C@H](CC(N)=O)NC(=O)[C@H](CCC(N)=O)NC1=O | – | 97% | 8.10
CC[C@H](C)[C@@H]1NC(=O)[C@H](Cc2ccc(O)cc2)NC(=O)CCSSC[C@@H](C(=O)N2CCC[C@H]2C(=O)N[C@@H](CC(C)C)C(=O)NCC(N)=O)N(C)C(=O)[C@H](CC(N)=O)NC(=O)[C@H](CCC(N)=O)NC1=O | – | 84% | 9.54
CC[C@H](C)[C@@H]1NC(=O)[C@H](Cc2ccc(O)cc2)NC(=O)[C@@H](N)CSSC[C@@H](C(=O)N2CCC[C@H]2C(=O)N(C)[C@@H](CC(C)C)C(=O)NCC(N)=O)N(C)C(=O)[C@H](CC(N)=O)NC(=O)[C@H](CCC(N)=O)NC1=O | 7.16 | 83% | 7.81
CC[C@H](C)[C@H]1C(=O)N[C@@H](CCC(N)=O)C(=O)N[C@@H](CC(N)=O)C(=O)N(C)[C@H](C(=O)N2CCC[C@H]2C(=O)N[C@@H](CC(C)C)C(=O)NCC(N)=O)CSSCCC(=O)N[C@@H](Cc2ccc(O)cc2)C(=O)N1C | – | – | < 6.00
CC[C@H](C)[C@H]1C(=O)N[C@@H](CCC(N)=O)C(=O)N[C@@H](CC(N)=O)C(=O)N(C)[C@H](C(=O)N2CCC[C@H]2C(=O)N[C@@H](CC(C)C)C(=O)NCC(N)=O)CSSC[C@H](N)C(=O)N[C@@H](Cc2ccc(O)cc2)C(=O)N1C | – | 94% | 6.55
CC[C@H](C)[C@@H]1NC(=O)[C@H](Cc2ccc(O)cc2)NC(=O)CCSSC[C@@H](C(=O)N2CCC[C@H]2C(=O)N[C@@H](CC(C)C)C(=O)NCC(N)=O)NC(=O)[C@H](CC(N)=O)NC(=O)[C@H](CCC(N)=O)NC1=O | 9.48 | 106% | –
CC[C@H](C)[C@@H]1NC(=O)[C@H](Cc2ccc(O)cc2)NC(=O)[C@@H](NC)CSSC[C@@H](C(=O)N2CCC[C@H]2C(=O)N[C@@H](CC(C)C)C(=O)NCC(N)=O)NC(=O)[C@H](CC(N)=O)NC(=O)[C@H](CCC(N)=O)NC1=O | 8.26 | 102% | 8.32
CC[C@H](C)[C@@H]1NC(=O)[C@H](Cc2ccc(O)cc2)NC(=O)[C@@H](N)CSSC[C@@H](C(=O)N2CCC[C@H]2C(=O)N[C@@H](CC(C)C)C(=O)NCC(N)=O)NC(=O)[C@H](CC(N)=O)N(C)C(=O)[C@H](CCC(N)=O)NC1=O | 7.50 | 100% | 7.59
CC[C@H](C)[C@@H]1NC(=O)[C@H](Cc2ccc(O)cc2)NC(=O)[C@@H](N)CSSC[C@@H](C(=O)N2CCC[C@H]2C(=O)N[C@@H](CC(C)C)C(=O)N(C)CC(N)=O)N(C)C(=O)[C@H](CC(N)=O)NC(=O)[C@H](CCC(N)=O)NC1=O | 7.47 | 90% | 7.97
CC[C@H](C)[C@@H]1NC(=O)[C@H](Cc2ccc(O)cc2)NC(=O)[C@@H](N)CSSC[C@@H](C(=O)N2CCC[C@H]2C(=O)N(C)[C@@H](CC(C)C)C(=O)N(C)CC(N)=O)NC(=O)[C@H](CC(N)=O)NC(=O)[C@H](CCC(N)=O)NC1=O | 7.97 | 96% | 8.26
CC[C@H](C)[C@H]1C(=O)N[C@@H](CCC(N)=O)C(=O)N[C@@H](CC(N)=O)C(=O)N[C@H](C(=O)N2CCC[C@H]2C(=O)N[C@@H](CC(C)C)C(=O)NCC(N)=O)CSSC[C@H](N)C(=O)N[C@@H](Cc2ccc(O)cc2)C(=O)N1C | 6.95 | 100% | 7.83
CC[C@H](C)[C@@H]1NC(=O)[C@H](Cc2ccc(O)cc2)NC(=O)CCSSC[C@@H](C(=O)N2CCC[C@H]2C(=O)N(C)[C@@H](CC(C)C)C(=O)N(C)CC(N)=O)NC(=O)[C@H](CC(N)=O)NC(=O)[C@H](CCC(N)=O)NC1=O | – | 86% | 9.23
CC[C@H](C)[C@@H]1NC(=O)[C@H](Cc2ccc(O)cc2)NC(=O)CCSSC[C@@H](C(=O)N2CCC[C@H]2C(=O)N[C@@H](CC(C)C)C(=O)N(C)CC(N)=O)N(C)C(=O)[C@H](CC(N)=O)NC(=O)[C@H](CCC(N)=O)NC1=O | – | 84% | 8.62
CC[C@H](C)[C@@H]1NC(=O)[C@H](Cc2ccc(O)cc2)NC(=O)[C@@H](N)CSSC[C@@H](C(=O)N2CCC[C@H]2C(=O)N[C@@H](CC(C)C)C(=O)NCC(N)=O)NC(=O)[C@H](CC(N)=O)NC(=O)[C@H](CCC(N)=O)NC1=O | – | 102% | –
CC[C@H](C)[C@@H]1NC(=O)[C@H](Cc2ccc(O)cc2)N(C)C(=O)[C@@H](N)CSSC[C@@H](C(=O)N2CCC[C@H]2C(=O)N[C@@H](CC(C)C)C(=O)NCC(N)=O)NC(=O)[C@H](CC(N)=O)NC(=O)[C@H](CCC(N)=O)NC1=O | 8.17 | 98% | 7.62
CC[C@H](C)[C@@H]1NC(=O)[C@H](Cc2ccc(O)cc2)NC(=O)[C@@H](N)CSSC[C@@H](C(=O)N2CCC[C@H]2C(=O)N[C@@H](CC(C)C)C(=O)NCC(N)=O)N(C)C(=O)[C@H](CC(N)=O)NC(=O)[C@H](CCC(N)=O)NC1=O | 8.98 | 95% | 9.00
